# Measurements reported in article PMC11144196, “Structural basis for human mitochondrial tRNA maturation” (Nature Communications, 2024).
# B1: TRMT10C (residues 40-403, without the mitochondrial transport signal) (enzyme, human, UniProt Q7L0Y3 40-403, looked up)
# chain: MSSKIPAVTYPKNESTPPSEELELDKWKTTMKSSVQEECVSTISSSKDEDPLAATREFIEMWRLLGREVPEHITEEELKTLMECVSNTAKKKYLKYLYTKEKVKKARQIKKEMKAAAREEAKNIKLLETTEEDKQKNFLFLRLWDRNMDIAMGWKGAQAMQFGQPLVFDMAYENYMKRKELQNTVSQLLESEGWNRRNVDPFHIYFCNLKIDGALHRELVKRYQEKWDKLLLTSTEKSHVDLFPKDSIIYLTADSPNVMTTFRHDKVYVIGSFVDKSMQPGTSLAKAKRLNLATECLPLDKYLQWEIGNKNLTLDQMIRILLCLKNNGNWQEALQFVPKRKHTGFLEISQHSQEFINRLKKAKT
# notes: human TRMT10C, tRNA methyltransferase of mitochondrial RNase P, UniProt Q7L0Y3, residues 40-403; The subcomplex was purified on a HisTrap column; also called MTase; source: E. coli BL21(DE3) Rosetta, co-expressed with SDR5C1, purified (HisTrap, SEC, heparin, SEC)
# What was measured:
# TRNT1 [1] = target: T1, TRNT1 (Homo sapiens, UniProt Q96Q11); experiment: differential scanning fluorimetry (SYPRO Orange); format: binding; details: 5 uM protein, pH 7.5, 150 mM NaCl; thermal stabilisation
# T1 construct: residues 42-434, no mitochondrial transport signal; N-terminal His6-TEV tag cleaved; E. coli KRX
# T1 sequence (Q96Q11 42-434): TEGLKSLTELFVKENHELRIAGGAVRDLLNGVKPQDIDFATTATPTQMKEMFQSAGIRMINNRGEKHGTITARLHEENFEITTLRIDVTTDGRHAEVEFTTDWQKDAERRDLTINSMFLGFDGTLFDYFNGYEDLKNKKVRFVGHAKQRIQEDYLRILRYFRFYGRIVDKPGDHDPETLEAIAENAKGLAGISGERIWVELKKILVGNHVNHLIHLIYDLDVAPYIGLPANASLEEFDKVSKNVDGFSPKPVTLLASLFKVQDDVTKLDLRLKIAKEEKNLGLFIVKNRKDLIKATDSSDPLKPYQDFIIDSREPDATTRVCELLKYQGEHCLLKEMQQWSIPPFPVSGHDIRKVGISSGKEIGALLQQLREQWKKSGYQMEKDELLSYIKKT
# TRNT1 [2] = target: T1, TRNT1; experiment: cryo-EM structure; format: binding; details: TRNT1 active site; complex with TRMT10C(SAH)/SDR5C1(NADH)/tRNA-Ile; 0.5 mM CDP, pH 8.0
# [3] = target: T2, TRMT10C/SDR5C1 complex (NADH site in SDR5C1) (Homo sapiens, UniProt Q99714); experiment: differential scanning fluorimetry (SYPRO Orange); format: binding; details: 5 uM protein, pH 7.5, 150 mM NaCl; thermal stabilisation
# T2 construct: gene HSD17B10; SDR5C1 residues 1-261 co-expressed with TRMT10C residues 40-403 in E. coli; SDR5C1 tetramer; HisTrap purified; with tRNA methyltransferase 10 homolog C
# T2 sequence (Q99714 1-261): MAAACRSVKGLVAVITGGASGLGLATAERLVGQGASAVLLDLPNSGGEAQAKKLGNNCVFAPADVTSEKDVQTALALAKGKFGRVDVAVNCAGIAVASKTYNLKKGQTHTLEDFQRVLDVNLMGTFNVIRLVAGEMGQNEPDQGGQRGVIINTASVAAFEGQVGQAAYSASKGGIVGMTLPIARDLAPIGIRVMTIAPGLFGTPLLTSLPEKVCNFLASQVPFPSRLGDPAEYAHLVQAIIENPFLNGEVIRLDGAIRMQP
# T2 sequence (Q7L0Y3 40-403 partner): B1 chain
# [4] = target: T3, TRMT10C/SDR5C1 complex (SAM/SAH site in TRMT10C) (Homo sapiens, UniProt Q7L0Y3); experiment: differential scanning fluorimetry (SYPRO Orange); format: binding; details: 5 uM protein, pH 7.5, 150 mM NaCl; thermal stabilisation
# T3 construct: TRMT10C residues 40-403 (no mitochondrial transport signal) co-expressed with SDR5C1 residues 1-261 in E. coli; 2:4 TRMT10C:SDR5C1; HisTrap purified; with 3-hydroxyacyl-CoA dehydrogenase type-2
# T3 sequence (Q7L0Y3 40-403): B1 chain
# T3 sequence (Q99714 1-261 partner): T2 sequence (Q99714 1-261)
# [5] = target: T3, TRMT10C/SDR5C1 complex (SAM/SAH site in TRMT10C); experiment: cryo-EM structure; format: binding; details: methyltransferase active site of TRMT10C; with NADH and pre-tRNA-Ile (8CBO); also with PRORP D479A (8CBK), ELAC2 H548A (8CBL) or TRNT1 (8CBM)
# [6] = target: T3, TRMT10C/SDR5C1 complex (SAM/SAH site in TRMT10C); experiment: 3H-methyl transfer to pre-tRNA, scintillation counting; format: biochemical; details: pre-tRNA-Ile (G9) or pre-tRNA-His-Ser (A9), pH 8.5, 5 mM MgCl2, 37 °C; labelled compound
# [7] = target: T4, ELAC2 H548A (residues 31-826) (human, UniProt Q9BQ52 31-826, H548A); experiment: cryo-EM structure; Complex 3: 1 uM TRMT10C/SDR5C1, 10 uM SAH, 10 uM NADH, 5 uM pre-tRNA^His(0,Ser), then 5 uM ELAC2 H548A; 50 mM Tris pH 8.0, 100 mM NaCl, 1 mM TCEP; ELAC2 sits on the pre-tRNA held by the subcomplex; details: both partners purified
# T4 construct: human ELAC2 (long-form RNase Z), UniProt Q9BQ52, residues 31-826; pET28a-derived vector, His6-TEV site; treated with TEV protease; also called mt-RNase Z; source: E. coli KRX, purified like WT (HisTrap, Resource Q, TEV, SEC); not shown: His6, N-terminal, cleaved
# T4 sequence (looked up): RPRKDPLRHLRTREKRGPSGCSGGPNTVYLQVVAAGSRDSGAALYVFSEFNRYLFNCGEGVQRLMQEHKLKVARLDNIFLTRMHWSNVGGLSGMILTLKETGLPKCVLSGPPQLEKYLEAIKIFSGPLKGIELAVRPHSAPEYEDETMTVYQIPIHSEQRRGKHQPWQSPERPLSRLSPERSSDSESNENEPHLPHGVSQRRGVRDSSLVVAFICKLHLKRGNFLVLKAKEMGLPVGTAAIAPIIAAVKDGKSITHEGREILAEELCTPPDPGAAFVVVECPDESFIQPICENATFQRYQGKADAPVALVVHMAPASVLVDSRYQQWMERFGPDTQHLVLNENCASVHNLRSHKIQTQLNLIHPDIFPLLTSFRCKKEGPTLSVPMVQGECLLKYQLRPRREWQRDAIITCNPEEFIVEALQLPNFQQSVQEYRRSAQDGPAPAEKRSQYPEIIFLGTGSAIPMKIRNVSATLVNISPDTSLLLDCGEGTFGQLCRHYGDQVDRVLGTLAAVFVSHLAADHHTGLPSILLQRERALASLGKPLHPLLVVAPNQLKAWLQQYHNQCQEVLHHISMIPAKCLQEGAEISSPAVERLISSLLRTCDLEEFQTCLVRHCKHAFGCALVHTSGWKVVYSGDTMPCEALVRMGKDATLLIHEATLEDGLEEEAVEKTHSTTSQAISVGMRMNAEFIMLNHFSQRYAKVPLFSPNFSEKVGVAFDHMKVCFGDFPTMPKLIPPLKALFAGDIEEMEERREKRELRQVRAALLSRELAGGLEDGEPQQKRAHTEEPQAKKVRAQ
# [8] = target: T5, PRORP D479A (residues 45-583) (human, UniProt O15091 45-583, D479A); experiment: cryo-EM structure; Complex 2: 4 uM TRMT10C/SDR5C1, 40 uM SAH, 40 uM NADH, 20 uM pre-tRNA^His-Ser, then 10 uM PRORP D479A; 50 mM Tris pH 8.0, 100 mM NaCl, 1 mM TCEP; PRORP sits on the pre-tRNA held by the subcomplex; details: both partners purified
# T5 construct: human PRORP (protein-only RNase P endoribonuclease), UniProt O15091, residues 45-583; pET28a-derived vector, His6-TEV site; treated with TEV protease; source: E. coli BL21(DE3) Rosetta, purified like WT (HisTrap, TEV, SEC); not shown: His6, N-terminal, cleaved
# T5 sequence (looked up): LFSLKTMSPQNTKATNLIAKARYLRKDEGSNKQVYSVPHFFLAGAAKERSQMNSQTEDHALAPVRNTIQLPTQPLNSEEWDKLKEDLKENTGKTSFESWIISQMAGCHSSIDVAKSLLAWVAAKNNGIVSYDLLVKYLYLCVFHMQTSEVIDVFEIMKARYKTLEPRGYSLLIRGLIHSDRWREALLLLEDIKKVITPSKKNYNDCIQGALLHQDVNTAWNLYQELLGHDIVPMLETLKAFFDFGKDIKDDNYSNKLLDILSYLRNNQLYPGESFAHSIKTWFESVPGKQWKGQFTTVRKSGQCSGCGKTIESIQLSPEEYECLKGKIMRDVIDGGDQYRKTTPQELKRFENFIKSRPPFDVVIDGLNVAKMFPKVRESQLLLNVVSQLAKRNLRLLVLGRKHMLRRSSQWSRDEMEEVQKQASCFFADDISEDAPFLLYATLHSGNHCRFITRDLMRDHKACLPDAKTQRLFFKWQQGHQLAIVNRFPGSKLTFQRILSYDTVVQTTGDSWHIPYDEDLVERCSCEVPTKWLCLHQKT
molecule,measurement,setting,value
Nc1ccn([C@@H]2O[C@H](COP(=O)(O)OP(=O)(O)OP(=O)(O)O)[C@@H](O)[C@H]2O)c(=O)n1 [CTP],Tm,TRNT1 [1],"CTP, ATP or CDP to TRNT1 stabilised these enzymes"
Nc1ncnc2c1ncn2[C@@H]1O[C@H](COP(=O)(O)OP(=O)(O)OP(=O)(O)O)[C@@H](O)[C@H]1O [ATP],Tm,TRNT1 [1],"CTP, ATP or CDP to TRNT1 stabilised these enzymes"
Nc1ccn([C@@H]2O[C@H](COP(=O)(O)OP(=O)(O)O)[C@@H](O)[C@H]2O)c(=O)n1 [CDP],cryo-EM structure,TRNT1 [2],a molecule of CDP that is likely π-stacked with the substrate A73 nucleotide
same,Tm,TRNT1 [1],"CTP, ATP or CDP to TRNT1 stabilised these enzymes"
NC(=O)C1=CN([C@@H]2O[C@H](COP(=O)(O)OP(=O)(O)OC[C@H]3O[C@@H](n4cnc5c(N)ncnc54)[C@H](O)[C@@H]3O)[C@@H](O)[C@H]2O)C=CC1 [NADH],Tm,[3],"NADH to SDR5C1 and CTP, ATP or CDP to TRNT1 stabilised these enzymes"
Nc1ncnc2c1ncn2[C@@H]1O[C@H](CSCC[C@H](N)C(=O)O)[C@@H](O)[C@H]1O [SAH],Tm,[4],"addition of co-factors or co-factor analogues, i.e. SAH to TRMT10C"
same,cryo-EM structure,[5],"In all the structures, the TRMT10C catalytic pocket contains SAH"
C[S+](CC[C@H](N)C(=O)O)C[C@H]1O[C@@H](n2cnc3c(N)ncnc32)[C@H](O)[C@@H]1O (stereo partly shown) [SAM],"3H-methyl transfer to pre-tRNA, scintillation counting",[6],"Methylation assays, using ^3H-SAM as methyl donor, showed that the TRMT10C/SDR5C1 complex methylates"
B1,binding result,[7],binds
same,binding result,[8],binds
